Assay results taken from patent US9617222B1, “Alkynyl indazole derivative and use thereof” (SENJU PHARMACEUTICAL CO., LTD., priority 2014, dated 2017).
Values after ≈ are worked out from the molar mass of the structure shown.

What was measured:
[1] = Solubility test in 0.1% phosphate buffer solution (pH 7.0); assay type: physicochemical; conditions: aqueous buffer, thermodynamic from solid; 0.1% phosphate buffer solution (pH 7.0), room temperature overnight
Description: The mixture was subjected to ultrasonic irradiation for 30 seconds, and then shaken at room temperature overnight. The resulting suspension was left at rest at room temperature for 30 minutes, then filtered through a chromatography disc (0.20 μm) to prepare a sample solution. The sample solution and the standard solution were analyzed by LC-MS (product name: ACQUITY UPLC H-CLASS SYSTEM and Xevo TQ-S, produced by Nihon Waters K.K.), and a solubility was calculated from the obtained peak area value by an external standard method.

[2] = system: Human Retinal Microvascular Endothelial (hRMVE) Cells (hRMVEC); assay: Growth inhibition of hRMVE cells under VEGF stimulation (MTT assay); assay type: cell-based; conditions: recombinant human VEGF, 48 hours, read-out: Cell Growth Inhibition Activity

SMILES | solubility [1] [µg/mL] | IC50 [2] [nM]
CNC(=O)c1ccccc1Sc1ccc2c(C#Cc3cncc(NC(=O)NCCOCCOCCOC)c3)n[nH]c2c1 [Compound 30, 2-[(3-{[5-(3-{2-[2-(2-methoxyethoxy)ethoxy]ethyl}ureido)pyridine-3-yl]ethynyl}-1H-indazol-6-yl)thio]-N-methylbenzamide] | 0.58 (≈ 0.985 µM) | –
CNC(=O)c1ccccc1Sc1ccc2c(C#Cc3ccc(NC(=O)NCCOCCOCCOCCOC)cc3)n[nH]c2c1 [Compound 9, 2-{[3-({4-[3-(2,5,8,11-tetraoxatridecane-13-yl)ureido]phenyl}ethynyl)-1H-indazol-6-yl]thio}-N-methylbenzamide] | 1.2 (≈ 1.9 µM) | –
CNC(=O)c1ccccc1Sc1ccc2c(C#Cc3cncc(NC(=O)NCCOCCOCCOCCOCCOC)c3)n[nH]c2c1 [Compound 31, 2-{[3-({5-[3-(2,5,8,11,14-pentaoxahexadecane-16-yl)ureido]pyridine-3-yl}ethynyl)-1H-indazol-6-yl]thio}-N-methylbenzamide] | 9.9 (≈ 14.6 µM) | –
CNC(=O)c1ccccc1Sc1ccc2c(C#Cc3cccc(NCCOCCOCCOC)c3)n[nH]c2c1 [Compound 25, 2-[(3-{[3-({2-[2-(2-methoxyethoxy)ethoxy]ethyl}amino)phenyl]ethynyl}-1H-indazol-6-yl)thio]-N-methylbenzamide] | – | 10
CNC(=O)c1ccccc1Sc1ccc2c(C#Cc3cccc(NC(=O)NCCOCCOCCOC)c3)n[nH]c2c1 [Compound 3, 2-[(3-{[3-(3-{2-[2-(2-methoxyethoxy)ethoxy]ethyl}ureido)phenyl]ethynyl}-1H-indazol-6-yl)thio]-N-methylbenzamide] | – | 11
CNC(=O)c1ccccc1Sc1ccc2c(C#Cc3ccc(NC(=O)OCCOCCOCCOCCOC)cc3)n[nH]c2c1 [Compound 17, 2,5,8,11-tetraoxatridecane-13-yl {4-[(6-{[2-(methylcarbamoyl)phenyl]thio}-1H-indazol-3-yl)ethynyl]phenyl}carbamate] | 0.38 (≈ 0.601 µM) | –
CNC(=O)c1ccccc1Sc1ccc2c(C#Cc3cccc(NC(=O)NCCOCCOCCOCCOC)c3)n[nH]c2c1 [Compound 4] | 0.31 (≈ 0.491 µM) | –
CNC(=O)c1ccccc1Sc1ccc2c(C#Cc3ccc(NC(=O)OCCOCCOCCOCCOCCOC)cc3)n[nH]c2c1 [Compound 18, 2,5,8,11,14-pentaoxahexadecane-16-yl {4-[(6-{[2-(methylcarbamoyl)phenyl]thio}-1H-indazol-3-yl)ethynyl]phenyl}carbamate] | 0.86 (≈ 1.27 µM) | –
CNC(=O)c1ccccc1Sc1ccc2c(C#Cc3ccc(NC(=O)NCCOCCOCCOCCOC)cn3)n[nH]c2c1 [Compound 36, 2-{[3-({5-[3-(2,5,8,11-tetraoxatridecane-13-yl)ureido]pyridine-2-yl}ethynyl)-1H-indazol-6-yl]thio}-N-methylbenzamide] | 16 (≈ 25.3 µM) | –
CNC(=O)c1ccccc1Sc1ccc2c(C#Cc3ccc(NCCOCCOCCOCCOC)cc3)n[nH]c2c1 [Compound 28, 2-{[3-({4-[(2,5,8,11-tetraoxatridecane-13-yl)amino]phenyl}ethynyl)-1H-indazol-6-yl]thio}-N-methylbenzamide] | 0.17 (≈ 0.289 µM) | –
CNC(=O)c1ccccc1Sc1ccc2c(C#Cc3cccc(NC(=O)NCCOCCOCCOCCOCCOC)c3)n[nH]c2c1 [Compound 5, 2-{[3-({3-[3-(2,5,8,11,14-pentaoxahexadecane-16-yl)ureido]phenyl}ethynyl)-1H-indazol-6-yl]thio}-N-methylbenzamide] | 0.99 (≈ 1.46 µM) | –
CNC(=O)c1ccccc1Sc1ccc2c(C#Cc3ccc(NC(=O)COCCOCCOCCOCCOCCOC)cc3)n[nH]c2c1 [Compound 22, N-{4-[(6-{[2-(methylcarbamoyl)phenyl]thio}-1H-indazol-3-yl)ethynyl]phenyl}-2,5,8,11,14,17-hexaoxanonadecane-19-amide] | 3.3 (≈ 4.78 µM) | –
CNC(=O)c1ccccc1Sc1ccc2c(C#Cc3ccc(NC(=O)NCCOCCOCCOC)cn3)n[nH]c2c1 [Compound 35, 2-[(3-{[5-(3-{2-[2-(2-methoxyethoxy)ethoxy]ethyl}ureido)pyridine-2-yl]ethynyl}-1H-indazol-6-yl)thio]-N-methylbenzamide] | 4.4 (≈ 7.47 µM) | 3.2
CNC(=O)c1ccccc1Sc1ccc2c(C#Cc3cccc(NC(=O)OCCOCCOCCOC)c3)n[nH]c2c1 [Compound 13, 2-[2-(2-methoxyethoxy)ethoxy]ethyl {3-[(6-{[2-(methylcarbamoyl)phenyl]thio}-1H-indazol-3-yl)ethynyl]phenyl}carbamate] | – | 9.3
CNC(=O)c1ccccc1Sc1ccc2c(C#Cc3ccc(NC(=O)NCCOCCOCCOCCOCCOC)cn3)n[nH]c2c1 [Compound 37, 2-{[3-({5-[3-(2,5,8,11,14-pentaoxahexadecane-16-yl)ureido]pyridine-2-yl}ethynyl)-1H-indazol-6-yl]thio}-N-methylbenzamide] | 29 (≈ 42.8 µM) | –
CNC(=O)c1ccccc1Sc1ccc2c(C#Cc3ccc(NC(=O)COCCOCCOCCOC)cc3)n[nH]c2c1 [Compound 20, N-{4-[(6-{[2-(methylcarbamoyl)phenyl]thio}-1H-indazol-3-yl)ethynyl]phenyl}-2,5,8,11-tetraoxatridecane-13-amide] | – | 1.7
CNC(=O)c1ccccc1Sc1ccc2c(C#Cc3ccc(NC(=O)OCCOCCOCCOC)cc3)n[nH]c2c1 [Compound 16, 2-[2-(2-methoxyethoxy)ethoxy]ethyl {4-[(6-{[2-(methylcarbamoyl)phenyl]thio}-1H-indazol-3-yl)ethynyl]phenyl}carbamate] | 0.27 (≈ 0.459 µM) | 1.2
CNC(=O)c1ccccc1Sc1ccc2c(C#Cc3ccc(NC(=O)NCCOCCOCCN4CCOCC4)cc3)n[nH]c2c1 [Compound 46, N-methyl-2-[(3-{[4-(3-{2-[2-(2-morpholinoethoxy)ethoxy]ethyl}ureido)phenyl]ethynyl}-1H-indazol-6-yl)thio]benzamide] | 1.4 (≈ 2.18 µM) | 3.2
CNC(=O)c1ccccc1Sc1ccc2c(C#Cc3ccc(NC(=O)NCCOCCOCCO)cc3)n[nH]c2c1 [Compound 42, 2-[(3-{[4-(3-{2-[2-(2-hydroxyethoxy)ethoxy]ethyl}ureido)phenyl]ethynyl}-1H-indazol-6-yl)thio]-N-methylbenzamide] | 3.1 (≈ 5.4 µM) | 1.6
CNC(=O)c1ccccc1Sc1ccc2c(C#Cc3ccc(NC(=O)NCCOCCOCCOCCOCCOC)cc3)n[nH]c2c1 [Compound 10, 2-{[3-({4-[3-(2,5,8,11,14-pentaoxahexadecane-16-yl)ureido]phenyl}ethynyl)-1H-indazol-6-yl]thio}-N-methylbenzamide] | 2.5 (≈ 3.7 µM) | –
CNC(=O)c1ccccc1Sc1ccc2c(C#Cc3ccc(NC(=O)NCCOCCOCCOC)nc3)n[nH]c2c1 [Compound 32, 2-[(3-{[6-(3-{2-[2-(2-methoxyethoxy)ethoxy]ethyl}ureido)pyridine-3-yl]ethynyl}-1H-indazol-6-yl)thio]-N-methylbenzamide] | – | 3.8
CNC(=O)c1ccccc1Sc1ccc2c(C#Cc3ccc(NC(=O)NCCOCCOCCOCCOCCOC)nc3)n[nH]c2c1 [Compound 34, 2-{[3-({6-[3-(2,5,8,11,14-pentaoxahexadecane-16-yl)ureido]pyridine-3-yl}ethynyl)-1H-indazol-6-yl]thio}-N-methylbenzamide] | 2.6 (≈ 3.84 µM) | –
CNC(=O)c1ccccc1Sc1ccc2c(C#Cc3ccc(NC(=O)COCCOCCOCCOC)cn3)n[nH]c2c1 [Compound 41] | 0.52 (≈ 0.861 µM) | –
CNC(=O)c1ccccc1Sc1ccc2c(C#Cc3ccc(NC(=O)NCCOCCOCCNC(C)=O)cc3)n[nH]c2c1 [Compound 45, 2-[(3-{[4-(3-{2-[2-(2-acetamideethoxy)ethoxy]ethyl}ureido)phenyl]ethynyl}-1H-indazol-6-yl)thio]-N-methylbenzamide] | 0.56 (≈ 0.911 µM) | 2.5
CNC(=O)c1ccccc1Sc1ccc2c(C#Cc3ccc(NC(=O)NCCOCCOCCN(C)C)cc3)n[nH]c2c1 [Compound 44, 2-{[3-({4-[3-(2-{2-[2-(dimethylamino)ethoxy]ethoxy}ethyl)ureido]phenyl}ethynyl)-1H-indazol-6-yl]thio}-N-methylbenzamide] | 7.6 (≈ 12.7 µM) | 3
CNC(=O)c1ccccc1Sc1ccc2c(C#Cc3ccc(NCCOCCOCCOCCOCCOC)cc3)n[nH]c2c1 [Compound 29, 2-{[3-({4-[(2,5,8,11,14-pentaoxahexadecane-16-yl)amino]phenyl}ethynyl)-1H-indazol-6-yl]thio}-N-methylbenzamide] | 0.89 (≈ 1.41 µM) | –
CNC(=O)c1ccccc1Sc1ccc2c(C#Cc3ccc(NC(=O)COCCOCCOCCOC)nc3)n[nH]c2c1 [Compound 38, N-{5-[(6-{[2-(methylcarbamoyl)phenyl]thio}-1H-indazol-3-yl)ethynyl]pyridine-2-yl}-2,5,8,11-tetraoxatridecane-13-amide] | – | 3.5
CNC(=O)c1ccccc1Sc1ccc2c(C#Cc3ccc(NC(=O)NCCOCCOCCN)cc3)n[nH]c2c1 [Compound 43, 2-[(3-{[4-(3-{2-[2-(2-aminoethoxy)ethoxy]ethyl}ureido)phenyl]ethynyl}-1H-indazol-6-yl)thio]-N-methylbenzamide] | 32 (≈ 55.9 µM) | 4
